Where a name gives a salt, the structure may show the parent alone. Read-outs that look alike come from different tables or passages of the source.
Tests used:
[1] = acute toxicity (72 hour LD50) in mice; details: mouse, in vivo, IP, read-out: 72 hour LD50 (95% Confidence Limits)
[2] = test system: d-amphetamine lethality in mice; assay: block of lethal effects of d-amphetamine in aggregated mice (modified procedure of Burn and Hobbs); type: in vivo; details: Mus musculus
Source text: Intern. Pharmacodyn. 113: 290 (1958).
Effects of different pretreatment time intervals
on d-amphetamine lethality in mice

[3] = IP, mice, 1 hr. pretreatment, read-out: Protective ED50 (95% confidence limits)
[4] = IP, mice, 4 hrs. pretreatment, read-out: Protective ED50 (95% confidence limits)
[5] = IP, mice, 8 hrs. pretreatment, read-out: Protective ED50 (95% confidence limits)
[6] = IP, mice, 16 hrs. pretreatment, read-out: Protective ED50 (95% confidence limits)

Row | Compound | LD50 at 72 h [1] [mg/kg] | ED50 ([2]; ip, running text: administered I.P. in mice, after 16 hours, read-out: ED50) [mg/kg] | ED50 [2, 3] [mg/kg] | ED50 [2, 4] [mg/kg] | ED50 [2, 5] [mg/kg] | ED50 [2, 6] [mg/kg]
1 | O=C(c1ccc(F)cc1)C1CCN(CCCN2c3ccccc3Sc3ccc(Cl)cc32)CC1 [Example 7, 2-Chloro-10-[3-(4-p-fluorobenzoylpiperidinyl)propyl] phenothiazine Hydrochloride Hydrate (1:4)] | 248 | 0.72 | 0.17 | 0.53 | 0.19 | 0.72
2 | O=C(c1ccc(F)cc1)C1CCN(CCCN2c3ccccc3Sc3ccc(C(F)(F)F)cc32)CC1 [Example 4, 2-Trifluoromethyl-10-[3-(4-p-fluorobenzoylpiperidinyl)propyl]phenothiazineFumarate] | 317 |  | 1.44 | 3.5 | 1.4 | 1.89
3 | O=C(c1ccc(F)cc1)C1CCN(CCCN2c3ccccc3Sc3ccccc32)CC1 [Example 1, 10-[3-(4-p-Fluorobenzoylpiperidinyl)propyl]phenothiazine Fumarate Hydrate (1:4)] | 330 |  | 0.94 | 0.35 | 1.27 | 12.1
4 | CC(=O)c1ccc2c(c1)N(CCCN1CCC(C(=O)c3ccc(F)cc3)CC1)c1ccccc1S2 [Example 6, 2-Acetyl-10-[3-(4-p-fluorobenzoylpiperidiny)propyl] phenothiazine Difumarate Sesquihydrate] | 287 |  | 0.14 | 0.1 | 0.06 | 0.76

From US4021552A, “10-[ω-(BENZOYLPIPERIDINYL)ALKYL]PHENOTHIAZINES” (A. H. Robins Company, Incorporated, priority 1976, dated 1977)
